Drawing on ChEMBL document CHEMBL1142962, “Antiproliferative prenylated stilbenes and flavonoids from Macaranga alnifolia from the Madagascar rainforest” (J Nat Prod, 2007), this text covers IC50 for four compounds.

Each structure is given as a SMILES string.

In the assay the test system is A2780 (human ovarian cancer). Briefly: Antiproliferative activity against drug-sensitive human A2780 cells.

One may read the IC50 as the concentration that gives 50% inhibition. A low value points to inhibition by little substance. In turn, `CC(C)=CCC/C(C)=C/Cc1c(O)cc2c(c1O)C(=O)C[C@@H](c1ccc(O)cc1)O2` [BONANNIONE A] came in with an IC50 of 24.5 µM.

`COc1cc(/C=C/c2cc(O)c3c(c2)OC(C)(C)C(O)C3)cc2c1O[C@]1(C)C[C@@H](O)[C@@H](O)C(C)(C)[C@H]1C2` (some centres undefined) [SCHWEINFURTHIN H] yielded an IC50 of 4.5 µM.

`CC(C)=CCc1c(O)cc(/C=C/c2cc(O)c3c(c2)C[C@@H]2C(C)(C)[C@H](O)[C@H](O)C[C@@]2(C)O3)cc1O` [VEDELIANIN] came in with an IC50 of 0.13 µM.

As to `CC(C)=CCC/C(C)=C/Cc1c(O)cc2c(c1O)C(=O)[C@H](O)[C@@H](c1ccc(O)cc1)O2` [BONANNIOL A], the IC50 amounted to 23.5 µM. Against the preceding compound, the IC50 is about 180-fold higher.
